According to the pKa sets of Baltruschat and Czodrowski (2020):

Settings: acidic group

Question: Which pKa does the source give for `Oc1nc2nc[nH]c2c(O)[nH+]1` here?
Answer: 1.2

Question: With `CCOC(=O)COc1ccc(S(=O)(=O)c2ccc(O)c(C[NH3+])c2)c(Cl)c1Cl` as the compound, how does the pKa read?
Answer: 6.67

Question: With `[O-]c1ccc(-c2ccc(O)cc2)cc1` as the compound, how does the pKa read?
Answer: 14.1

Question: Which pKa does the source give for `c1ccc(-c2nc3ccccc3[nH]2)cc1` here?
Answer: 11.9

Question: Which pKa does the source give for `COP(=O)(O)NS(=O)(=O)c1ccccc1` here?
Answer: 1.05

Question: With `Cn1nnc(CC(=O)O)n1` as the compound, how does the pKa read?
Answer: 3.44

Question: Which pKa does the source give for `COc1ccc(O)c(=O)cc1` here?
Answer: 7.75

Question: For `CC(=O)/C(C[NH+]1CCCCC1)=N\O`, which pKa is on record?
Answer: 7.05

Question: Which pKa does the source give for `O=C(O)c1cc(-c2ccccc2)n[nH+]c1NCC[NH+]1CCOCC1` here?
Answer: 1.1

Question: With `CC(C)SC(C)C(=O)O` (stereo unspecified) as the compound, how does the pKa read?
Answer: 3.78

Question: Which pKa does the source give for `O=C([O-])[C@@H](NCC[NH2+][C@@H](C(=O)[O-])c1ccccc1O)c1ccccc1O` here?
Answer: 8.76

Question: With `Oc1cncc2ccccc12` as the compound, how does the pKa read?
Answer: 8.68

Question: For `CSC(=O)C1c2ccccc2-c2ccccc21`, which pKa is on record?
Answer: 10.5

Question: For `CC(=O)CC(C)=O`, which pKa is on record?
Answer: 8.85

Question: Which pKa does the source give for `C[C@@H](C(=O)c1ccc(O)cc1)[NH+](C)Cc1ccccc1` here?
Answer: 7.5

Question: For `[NH3+][C@@H](Cc1c[nH]c2ccccc12)C(=O)O`, which pKa is on record?
Answer: 2.2

Question: With `O=N/C(=N/O)c1ccccc1` as the compound, how does the pKa read?
Answer: 4.9

Question: Which pKa does the source give for `CCc1ccc(OC)c(C(=O)NC[C@H]2CCC[NH+]2CC)c1O` here?
Answer: 8.7

Question: With `O=C(O)c1ccc(F)c([N+](=O)[O-])c1` as the compound, how does the pKa read?
Answer: 3.37

Question: With `CC(=O)Nc1ccc(O)cc1` as the compound, how does the pKa read?
Answer: 9.5

Question: Which pKa does the source give for `Cc1cc(Cc2cc(C)c(O)c(C)c2)c([O-])c([N+](=O)[O-])c1` here?
Answer: 11.1

Question: Which pKa does the source give for `Cc1ccc(S(=O)(=O)N[C@@H](CC(N)=O)C(=O)[O-])cc1` here?
Answer: 11.4

Question: For `C[Se](=O)O`, which pKa is on record?
Answer: 5.19

Question: For `Nc1c2[nH]cnc2nc[n+]1[O-]`, which pKa is on record?
Answer: 9

Question: With `NC(=O)c1c(CC(=O)O)n[nH]c1N` as the compound, how does the pKa read?
Answer: 3.5

Question: With `CNCCc1ccc(O)c(O)c1` as the compound, how does the pKa read?
Answer: 10.6

Question: For `Cc1cc(=O)oc2ccc(O)cc12`, which pKa is on record?
Answer: 9.14

Question: Which pKa does the source give for `Cc1nc(Cc2ccccc2)c(O)o1` here?
Answer: 10.3

Question: Which pKa does the source give for `Cc1n[nH]c(C)c1[N+](=O)[O-]` here?
Answer: 10.3

Question: Which pKa does the source give for `O=C([O-])c1ccccc1S` here?
Answer: 7.6

Question: With `CC1(C)[C@H]2CC[C@@]1(C)[C@@H](O)[C@H]2C(=O)O` as the compound, how does the pKa read?
Answer: 2.05

Question: Which pKa does the source give for `C=CC(CC(C)(C)CC(C)(C)C)c1ccc2cccnc2c1O` (stereo unspecified) here?
Answer: 10

Question: For `O=C(O)/C(Cl)=N/O`, which pKa is on record?
Answer: 1.5

Question: Which pKa does the source give for `O=C1[C@H]2CCCC[C@H]2C(=O)N1O` here?
Answer: 6

Question: For `C[NH+](C)CC(=O)O`, which pKa is on record?
Answer: 1.99

Question: Which pKa does the source give for `CC(=O)[C@@H]1C[C@@H]1C(=O)O` here?
Answer: 4.19

Question: For `OC(c1ccncc1)(c1ccccn1)c1ccccn1`, which pKa is on record?
Answer: 13.1

Question: For `c1ccc2cc3[nH]cnc3cc2c1`, which pKa is on record?
Answer: 12.5

Question: For `CC(C(=O)O)C(C#N)c1ccccc1` (stereo unspecified), which pKa is on record?
Answer: 3.7

Question: Which pKa does the source give for `CC(C)C([NH2+]c1ccccc1)C(=O)O` (stereo unspecified) here?
Answer: 4.4

Question: Which pKa does the source give for `O=C(c1ccccc1)N(O)c1ccccc1` here?
Answer: 7.87

Question: For `O=C([O-])c1ccc(O)c([N+](=O)[O-])c1`, which pKa is on record?
Answer: 6.41

Question: For `CCC(CC)C(=O)O[C@H]1O[C@@H](C(=O)O)[C@H](O)[C@@H](O)[C@@H]1O`, which pKa is on record?
Answer: 3.37

Question: Which pKa does the source give for `O=C(CCl)Nc1nnc(-c2ccccc2)s1` here?
Answer: 6.9

Question: For `O=C(Cc1ccccc1)NO`, which pKa is on record?
Answer: 9.26

Question: With `COc1ccc(S(=O)(=O)Nc2ccccc2)cc1` as the compound, how does the pKa read?
Answer: 8.66

Question: For `O=[N+]([O-])c1ccc(B(O)O)cc1`, which pKa is on record?
Answer: 7.15

Question: For `O=C(/C(=N/O)c1ccccc1)c1ccccc1`, which pKa is on record?
Answer: 8.8

Question: For `CN(C)c1nc2ncncc2[nH]1`, which pKa is on record?
Answer: 9.73

Question: Which pKa does the source give for `O=C1CN(C(=O)c2ccccc2)C(=S)N1` here?
Answer: 6.5

Question: With `NS(=O)(=O)c1cccc(C(F)(F)F)c1` as the compound, how does the pKa read?
Answer: 8.98

Question: For `O=C(O)[C@@H]1CC[C@H](C(=O)O)S1`, which pKa is on record?
Answer: 3.34

Question: Which pKa does the source give for `NC(=O)Nc1ncnc2nc[nH]c12` here?
Answer: 9.95

Question: Which pKa does the source give for `CC(C)c1cc(O)c(=O)ccc1Br` here?
Answer: 6.53

Question: Which pKa does the source give for `COc1cccc(/C=N/O)c1` here?
Answer: 10.6

Same assay, conditions: basic group

Question: Which pKa does the source give for `NCC(O)CO` (stereo unspecified) here?
Answer: 9.3

Question: Which pKa does the source give for `CC(C)(C(=O)[O-])c1c[nH]c(CO)n1` here?
Answer: 7.38

Question: With `Cc1ccc(N(CC2CO2)CC2CO2)cc1` (stereo unspecified) as the compound, how does the pKa read?
Answer: -0.48

Question: For `COc1cccc(CN)c1OC`, which pKa is on record?
Answer: 9.41

Question: Which pKa does the source give for `CCCc1c(O)n[nH]c1C` here?
Answer: 2.8

Question: With `Cc1ncc2nc(C)c(C)nc2n1` as the compound, how does the pKa read?
Answer: 3.76

Question: With `COc1ccc(N)cc1C[NH3+]` as the compound, how does the pKa read?
Answer: 5.24

Question: For `COc1ccc2c3c1O[C@H]1[C@@H](O)CC[C@H]4[C@@H](C2)N(C)CC[C@@]341`, which pKa is on record?
Answer: 8.71

Question: For `CC(=O)OC(C)CN(C)C` (stereo unspecified), which pKa is on record?
Answer: 8.31

Question: Which pKa does the source give for `C[NH2+]CCCN` here?
Answer: 8.66

Question: Which pKa does the source give for `Nc1nc([O-])nc2nc[nH]c12` here?
Answer: 8.99

Question: Which pKa does the source give for `CN(C)CCCN(C)C(=O)/C=N/[O-]` here?
Answer: 9.83

Question: For `Cn1c(N)nc(=O)c2[nH]cnc21`, which pKa is on record?
Answer: 4.61

Question: With `CCC(O)CN(C)CC(C)O` (stereo unspecified) as the compound, how does the pKa read?
Answer: 8.9

Question: Which pKa does the source give for `CON` here?
Answer: 4.62

Question: With `O=C([O-])[C@@H](NCC[NH2+][C@@H](C(=O)[O-])c1ccccc1O)c1ccccc1O` as the compound, how does the pKa read?
Answer: 6.36

Question: Which pKa does the source give for `Oc1cncc2ccccc12` here?
Answer: 4.8

Question: With `Nc1ccc2cc3cc(Cl)ccc3nc2c1` as the compound, how does the pKa read?
Answer: 6.95

Question: With `CN(C)c1ccc(C#N)cc1` as the compound, how does the pKa read?
Answer: 1.78

Question: With `CNc1ncnc2c1cnn2C` as the compound, how does the pKa read?
Answer: 4.24

Question: For `Clc1cccnc1`, which pKa is on record?
Answer: 2.77

Question: For `Cc1cc[nH]n1`, which pKa is on record?
Answer: 3.66

Question: With `C(CN1CCOCC1)CN1CCOCC1` as the compound, how does the pKa read?
Answer: 7.25

Question: For `c1[nH]c(Cc2c[nH]c(Cc3[nH]cc(Cc4c[nH]c[nH+]4)[nH+]3)n2)c[nH+]1`, which pKa is on record?
Answer: 3.58

Question: For `Cc1ccnc(C)c1`, which pKa is on record?
Answer: 6.77

Question: With `CC(Cl)CN(C)C` (stereo unspecified) as the compound, how does the pKa read?
Answer: 8.12

Question: With `CC(C)(C)N1CC(O[Si](C)(C)C)C1` as the compound, how does the pKa read?
Answer: 9.24

Question: Which pKa does the source give for `Cc1nc(CO)[nH]c1C` here?
Answer: 7.88

Question: For `Nc1c2[nH]cnc2nc[n+]1[O-]`, which pKa is on record?
Answer: 2.6

Question: With `NC(c1ncc[nH]1)c1ncc[nH]1` as the compound, how does the pKa read?
Answer: 6.49

Question: With `CNCCc1ccc(O)c(O)c1` as the compound, how does the pKa read?
Answer: 8.84

Question: Which pKa does the source give for `Nc1ncnc2c1cnn2-c1ccccc1` here?
Answer: 3.89

Question: Which pKa does the source give for `COc1cc2c(OC)ncnc2c(OC)c1OC` here?
Answer: 3.34

Question: Which pKa does the source give for `Cc1n[nH]c(C)c1[N+](=O)[O-]` here?
Answer: -0.22

Question: With `CCOCCn1c(CN2CCC[NH+](CCCCn3cccn3)CC2)nc2ccccc21` as the compound, how does the pKa read?
Answer: 4.9

Question: For `CC[C@H]1[C@H](CC2=N/C(=C/c3[nH]c(C[C@@H]4NC(=O)[C@H](CC)[C@H]4C)c(C)c3CCC(=O)[O-])C(CCC(=O)[O-])=C2C)NC(=O)[C@@H]1C`, which pKa is on record?
Answer: 7.6

Question: With `CN1C=C(C#N)C=CC1` as the compound, how does the pKa read?
Answer: 2.7

Question: With `C=CC(CC(C)(C)CC(C)(C)C)c1ccc2cccnc2c1O` (stereo unspecified) as the compound, how does the pKa read?
Answer: 4.51

Question: Which pKa does the source give for `C[C@@H]1C[C@H](OC(=O)c2ccccc2)CC(C)(C)N1` here?
Answer: 8.97

Question: With `Cc1nn(-c2ccccc2)c(C(=O)[O-])c1C(=O)[O-]` as the compound, how does the pKa read?
Answer: 5.89

Question: With `COc1ccc(N(C)CO)cc1` as the compound, how does the pKa read?
Answer: 4.59

Question: Which pKa does the source give for `c1ccc2cc3[nH]cnc3cc2c1` here?
Answer: 5.24

Question: With `[NH3+]c1cccc(-c2nc3ccccc3s2)c1` as the compound, how does the pKa read?
Answer: 0.07

Question: With `O=C(c1ccccc1)N(O)c1ccccc1` as the compound, how does the pKa read?
Answer: -2.08

Question: With `CC[NH+](CC)CCN` as the compound, how does the pKa read?
Answer: 6.76

Question: With `NCCCCCCN` as the compound, how does the pKa read?
Answer: 11

Question: Which pKa does the source give for `C[n+]1ccc(N)nc1[O-]` here?
Answer: 4.52

Question: Which pKa does the source give for `CN1C[C@H](C(=O)[O-])C[C@@]2(O)c3cccc4[nH]cc(c34)C[C@@H]12` here?
Answer: 8.33

Question: With `N=C(c1ccccc1)c1cccc(O)c1` as the compound, how does the pKa read?
Answer: 6.92

Question: For `[O-]c1nc([O-])c2[nH]nnc2[nH+]1`, which pKa is on record?
Answer: 4.2

Question: For `COc1cccnc1C=O`, which pKa is on record?
Answer: 3.89

Question: For `CC(C)CN(C)c1ccccc1`, which pKa is on record?
Answer: 5.2

Question: Which pKa does the source give for `NC1=N[C@H]2C[C@@H](N1)N[C@@H]2C(=O)[O-]` here?
Answer: 12.6

Question: With `Cc1cccc(C)c1/C(=N/CCC[NH+](C)C)c1ccccc1` as the compound, how does the pKa read?
Answer: 3.83

Question: With `O=[N+]([O-])c1ccc(-n2nnnc2/C=C/c2ccc(Cl)cc2)cc1` as the compound, how does the pKa read?
Answer: -3.05

Question: For `CC(C)CSC(=N)c1ccccc1`, which pKa is on record?
Answer: 8.22

Question: With `CC1CCCC/C1=N\CC(=O)[O-]` (stereo unspecified) as the compound, how does the pKa read?
Answer: 9.64

Question: Which pKa does the source give for `CN(C)c1nc2ncncc2[nH]1` here?
Answer: 4.8

Question: For `N=C(N)N`, which pKa is on record?
Answer: 13.1

Question: With `Nc1ncnc2scnc12` as the compound, how does the pKa read?
Answer: 2.77

Question: For `O=C1C[C@H]2OCC=C3CN4CC[C@@]56c7ccccc7N1[C@@H]5[C@@H]2[C@@H]3C[C@@H]46`, which pKa is on record?
Answer: 8.18

Question: With `Cc1cnc([O-])nc1N` as the compound, how does the pKa read?
Answer: 12.4

Question: Which pKa does the source give for `O=C(O[C@@H]1C[C@H]2CC[C@@H](C1)N2)[C@H](CO)c1ccccc1` here?
Answer: 10.3

Question: With `O=C1CN(C(=O)c2ccccc2)C(=S)N1` as the compound, how does the pKa read?
Answer: -6.6

Question: For `CNC(=N)N(C)C`, which pKa is on record?
Answer: 13.6

Question: With `NC(=O)Nc1ncnc2nc[nH]c12` as the compound, how does the pKa read?
Answer: 2.35
